This note sets out measurements from patent publication US20120225947A1, “RETINAL NEUROPROTECTION BY ION CHANNEL BLOCKERS REGULATED BY THE SUR SUBUNIT” (ASSISTANCE PUBLIQUE - HOPITAUX DE PARIS, priority 2009, published 2012).

Read-outs that look alike come from different tables or passages of the source.

The test system of assay [1] is retinal cells. Nature of the assay: NMDA-induced retinal degeneration in the rat, different routes of administration of glibenclamide (Example 2), TUNEL apoptotic cell count. Type of assay: in vivo. The following applies: for apoptotic cell count in retinas exposed to NMDA-induced degeneration: 18 hours, vs NMDA+DMSO, FIG. 6; for NMDA-induced retinal cell degeneration (apoptotic cells per field): intravitreal NMDA the same day. The text has this: (§1) To induce retinal neurodegeneration, the inventors injected N-methyl-D-aspartate (NMDA) into the vitreous body of rats, a recognized model of retinal excitotoxicity in which NMDA, a synthetic glutamate analog, promotes cell death (Crisanti et al., 2006). Present in excess amounts, NMDA hyperactivates neuronal excitatory receptors (NMDA receptors) which become permeable to calcium. Injection of NMDA results in an increase in intracellular calcium levels. Intracellular calcium activates enzymes (phospholipase C, endonucleases, proteases) which degrade cell structures and lead to apoptosis.
Eight-week-old male Wistar rats weighing 320-350 g were used. Rats were maintained in standard animal housing with a 12 hr day/12 hr night cycle at a temperature of 21° C.+1° C. and 55±5% humidity.
Retinal sections were permeabilized by incubation in 0.3% Triton ×100 for 20 minutes at room temperature and then incubated for 1 hour at 37° C. with 50 μL of TUNEL reaction mixture per slide (mixture obtained with 40 μL TUNEL enzyme and 360 μL TUNEL label, solution containing FITC-conjugated nucleotides).
The amount of cell death by apoptosis and the type of cells concerned were evaluated by the number and intraretinal location of TUNEL-positive nuclei. For each eye, four complete retinal sections taken from the same eye sectors were used for apoptotic cell counts. The total number of apoptotic cells per retina was calculated with reference to the number of fields counted (therefore to retinal length which varies from one area of the retina to another). The mean of these field counts was calculated for an entire retinal section (composed of 7 to 14 fields) and these means, calculated for the different treatment groups, were compared by a nonparametric Mann-Whitney test with significance at p<0.05.
Eight groups of 2 rats were used. Both eyes of each animal received identical treatment. Three routes of administration of glibenclamide were tested: intravitreal route (1 ng or 0.01 ng injected in each eye), oral route (10 mg/kg body weight) and subconjunctival route (1 ng glibenclamide injected in each eye).
The glibenclamide stock solution for the intravitreal and subconjunctival injections was obtained by diluting 4.5 mg glibenclamide in 300 μL of pure DMSO. This solution was then frozen. The glibenclamide solutions at different concentrations used for the intravitreal and subconjunctival injections were obtained by dilution in BSS® buffer (Alcon) immediately before use.
The glibenclamide solutions for oral administration (10 mg/kg) were obtained by dissolving 8 mg glibenclamide in […] DMSO and 1030 μL of water to give a 6 mg/ml glibenclamide solution, which was administered through a syringe.
Group 1: (n=2, 4 eyes), intravitreal injection of 6 μL of solution containing 45 nM NMDA and 1 ng glibenclamide.
Group 2: (n=2, 4 eyes), intravitreal injection of 6 μL of solution containing 45 nM NMDA and 0.01 ng glibenclamide.
Group 4: (n=2, 4 eyes), oral administration of glibenclamide 10 mg/kg body weight and simultaneous intravitreal injection of 6 μL of 45 nM NMDA. A 7% glucose solution was made available ad libitum to avoid possible hypoglycemia.
Group 6: (n=2, 4 eyes), subconjunctival injection of 50 μL of solution containing 1 ng glibenclamide and simultaneous intravitreal injection of 6 μL of 45 nM NMDA.
18 hours after NMDA and glibenclamide administration, rats were euthanized and the eyes were immediately dissected, fixed in 4% paraformaldehyde and 10% sucrose for 4 hours, then immersed overnight at 4° C. in 15% sucrose in phosphate buffer.
Eyes were then embedded in OCT and cryostat-sectioned (10 μm thick). Sections were labeled by the TUNEL method to detect apoptotic cell death.

For assay [2], the system named is retinal cells. Type of assay: in vivo. As to conditions: vs BSS, P<0.0001, FIG. 10.
Text: as §1
Eight-week-old male Wistar rats weighing 320-350 g were used. Rats were maintained in standard animal housing with a 12 hr day/12 hr night cycle at a temperature of 21° C.+1° C. and 55±5% humidity. […]
The amount of cell death by apoptosis and the type of cells concerned were evaluated by the number and intraretinal location of TUNEL-positive nuclei. […] The total number of apoptotic cells per retina was calculated with reference to the number of fields counted (therefore to retinal length which varies from one area of the retina to another). The mean of these field counts was calculated for an entire retinal section (composed of 7 to 14 fields) and these means, calculated for the different treatment groups, were compared by a nonparametric Mann-Whitney test with significance at p<0.05. […]

For the compound `COc1ccc(Cl)cc1C(=O)NCCc1ccc(S(=O)(=O)NC(=O)NC2CCCCC2)cc1` [glibenclamide], the “apoptotic cell count in retinas exposed to NMDA-induced degeneration” value with retinal cells [1] (intravitreal 0.01 ng co-injected with 45 nM NMDA) and with retinal cells [1] (intravitreal 1 ng co-injected with 45 nM NMDA) was “significant decrease” throughout. In addition, the “organization of the retinal cell layers (DAPI labeling)” value in the assay on retinal cells [1] (intravitreal 0.01 ng co-injected with NMDA, FIG. 7C) was “perfectly conserved”; in the assay on retinal cells [1] (intravitreal 1 ng co-injected with NMDA, FIG. 7B) it was “perfectly conserved”. Further, the “NMDA-induced retinal cell degeneration (apoptotic cells per field)” value is “significantly reduced” in the assay on retinal cells [1] (oral 10 mg/kg, vs DMSO per os, P=0.012, FIG. 8) and “significantly reduced” with retinal cells [1] (subconjunctival 1 ng, vs DMSO SCJ, P=0.0002, FIG. 9). For the same compound, the “protection of retinal cells from NMDA-induced degeneration (apoptotic cells per field)” value with retinal cells [2] (intravitreal 100 ng in BSS 5 days before intravitreal NMDA) and with retinal cells [2] (intravitreal 100 μg in BSS 5 days before intravitreal NMDA) was “significantly protected” each time.
